According to patent US20080119501A1, “IMMEDIATE RELEASE OXYMORPHONE COMPOSITIONS AND METHODS OF USING SAME” (priority 2006, published 2008):

Experiment: Single- and multiple-dose pharmacokinetic and dose-proportionality study of oxymorphone IR tablets in healthy subjects
Conditions: for AUC∞, mean: n=23; for AUC(0-inf) / concentration at 6 day / concentration at 7 day / concentration at 8 day / Cmax / half-life: both, human, oral
[1] = single dose oxymorphone IR 5 mg
[2] = single dose oxymorphone IR 5 mg, plasma
[3] = single dose oxymorphone IR 10 mg
[4] = single dose oxymorphone IR 10 mg, plasma
[5] = single dose oxymorphone IR 20 mg
[6] = single dose oxymorphone IR 20 mg, plasma
[7] = steady state, oxymorphone IR 5 mg q6 h
[8] = steady state, oxymorphone IR 10 mg q6 h
[9] = steady state, oxymorphone IR 20 mg q6 h

CN1CC[C@]23c4c5ccc(O)c4O[C@H]2C(O)CC[C@@]3(O)[C@H]1C5 (stereo partly drawn) [6-OH-oxymorphone]
t1/2 (terminal elimination half-life), mean [1]: 7.27 h
terminal elimination rate constant, mean [1]: 0.1661 h⁻¹
tmax, median [1]: 0.50 h
Cmax, mean [2]: 095 ng/mL
AUC∞, mean [2]: 0.00402 µg·h/mL
t1/2 (terminal elimination half-life), mean [3]: 13.72 h
terminal elimination rate constant, mean [3]: 0.0752 h⁻¹
tmax, median [3]: 0.50 h
Cmax, mean [4]: 1.62 ng/mL
AUC∞, mean [4]: 0.0099 µg·h/mL
t1/2 (terminal elimination half-life), mean [5]: 18.35 h
terminal elimination rate constant, mean [5]: 0.0414 h⁻¹
tmax, median [5]: 0.50 h
Cmax, mean [6]: 3.57 ng/mL
AUC∞, mean [6]: 0.02437 µg·h/mL
deviation from a linear dose response (single-dose administration): approximately 20%
AUCSS, mean [7]: 0.00498 µg·h/mL
Cavg (average plasma concentration), mean [7]: 0.83 ng/mL
Cmax, mean [7]: 1.55 ng/mL
Cmin, mean [7]: 0.70 ng/mL
tmax, median [7]: 0.50 h
AUCSS, mean [8]: 0.01077 µg·h/mL
Cavg (average plasma concentration), mean [8]: 1.80 ng/mL
Cmax, mean [8]: 3.12 ng/mL
Cmin, mean [8]: 1.52 ng/mL
tmax, median [8]: 0.50 h
AUCSS, mean [9]: 0.02368 µg·h/mL
Cavg (average plasma concentration), mean [9]: 3.95 ng/mL
Cmax, mean [9]: 6.94 ng/mL
Cmin, mean [9]: 3.34 ng/mL
tmax, median [9]: 0.50 h
deviation from a linear dose response (steady-state concentrations): approximately 10%

CN1CC[C@]23c4c5ccc(O[C@@H]6O[C@H](C(=O)O)[C@@H](O)[C@H](O)[C@H]6O)c4O[C@H]2C(=O)CC[C@@]3(O)[C@H]1C5 [Oxymorphone-3-glucuronide, oxymorphone-3-glucuronide]
t1/2 (terminal elimination half-life), mean [1]: 8.48 h
terminal elimination rate constant, mean [1]: 0.0936 h⁻¹
tmax, median [1]: 1.00 h
Cmax, mean [2]: 134.24 ng/mL
AUC∞, mean [2]: 0.65003 µg·h/mL
t1/2 (terminal elimination half-life), mean [3]: 9.15 h
terminal elimination rate constant, mean [3]: 0.0805 h⁻¹
tmax, median [3]: 1.00 h
Cmax, mean [4]: 265.78 ng/mL
AUC∞, mean [4]: 1.32272 µg·h/mL
t1/2 (terminal elimination half-life), mean [5]: 9.67 h
terminal elimination rate constant, mean [5]: 0.0763 h⁻¹
tmax, median [5]: 1.00 h
Cmax, mean [6]: 516.26 ng/mL
AUC∞, mean [6]: 2.6724 µg·h/mL
AUCSS, mean [7]: 0.61877 µg·h/mL
Cavg (average plasma concentration), mean [7]: 103.13 ng/mL
Cmax, mean [7]: 180.25 ng/mL
Cmin, mean [7]: 59.67 ng/mL
tmax, median [7]: 1.00 h
AUCSS, mean [8]: 1.32137 µg·h/mL
Cavg (average plasma concentration), mean [8]: 220.23 ng/mL
Cmax, mean [8]: 376.25 ng/mL
Cmin, mean [8]: 136.77 ng/mL
tmax, median [8]: 1.00 h
AUCSS, mean [9]: 2.55729 µg·h/mL
Cavg (average plasma concentration), mean [9]: 426.22 ng/mL
Cmax, mean [9]: 722.24 ng/mL
Cmin, mean [9]: 272.54 ng/mL
tmax, median [9]: 1.00 h

CN1CC[C@]23c4c5ccc(O)c4O[C@H]2C(=O)CC[C@@]3(O)[C@H]1C5 [Oxymorphone, oxymorphone]
dose proportionality of dose-normalised AUC∞, AUCss or Cmax (5-20 mg, single dose and steady state): linear and dose-proportional pharmacokinetics
AUC(0-inf) (plasma, 5 mg): 0.00448 µg·h/mL
concentration at 6 day (plasma, 5 mg): 0.47 ng/mL
concentration at 7 day (plasma, 5 mg): 0.5 ng/mL
concentration at 8 day (plasma, 5 mg): 0.49 ng/mL
Cmax (plasma, 5 mg, mean, single dose oxymorphone IR 5 mg): 1.1 ng/mL
Cmax (plasma, 5 mg, mean, steady state, oxymorphone IR 5 mg q6 h): 1.73 ng/mL
half-life (plasma, 5 mg, t1/2 (terminal elimination half-life), mean, single dose oxymorphone IR 5 mg): 7.25 h
AUC(0-inf) (plasma, 10 mg): 0.0091 µg·h/mL
concentration at 6 day (plasma, 10 mg): 0.98 ng/mL
concentration at 7 day (plasma, 10 mg): 0.99 ng/mL
concentration at 8 day (plasma, 10 mg): 1.16 ng/mL
Cmax (plasma, 10 mg, mean, single dose oxymorphone IR 10 mg): 1.93 ng/mL
Cmax (plasma, 10 mg, mean, steady state, oxymorphone IR 10 mg q6 h): 3.51 ng/mL
half-life (plasma, 10 mg, t1/2 (terminal elimination half-life), mean, single dose oxymorphone IR 10 mg): 7.78 h
AUC(0-inf) (plasma, 20 mg): 0.0201 µg·h/mL
concentration at 6 day (plasma, 20 mg): 2.05 ng/mL
concentration at 7 day (plasma, 20 mg): 2.31 ng/mL
concentration at 8 day (plasma, 20 mg): 2.47 ng/mL
Cmax (plasma, 20 mg, mean, single dose oxymorphone IR 20 mg): 4.39 ng/mL
Cmax (plasma, 20 mg, mean, steady state, oxymorphone IR 20 mg q6 h): 7.33 ng/mL
half-life (plasma, 20 mg, elimination half-life (t1/2) across doses, single dose, oxymorphone IR 5, 10 and 20 mg): 7.3 to 9.4 h
half-life (plasma, 20 mg, t1/2 (terminal elimination half-life), mean, single dose oxymorphone IR 20 mg): 9.43 h
time to achieve steady-state conditions (dosing every 6 hours, from trough concentrations): 3 to 4 days
CL/F (oral clearance), mean [1]: 23.53 L/min
Ln-CL/F, geometric least square mean (standard error), normalised to 10 mg [1]: 20.61 (1.05) L/min
terminal elimination rate constant, mean [1]: 0.1534 h⁻¹
CL/F (oral clearance), mean [3]: 21.42 L/min
Ln-CL/F, geometric least square mean (standard error), normalised to 10 mg [3]: 19.62 (1.05) L/min
terminal elimination rate constant, mean [3]: 0.1257 h⁻¹
CL/F (oral clearance), mean [5]: 18.21 L/min
Ln-CL/F, geometric least square mean (standard error), normalised to 10 mg [5]: 17.27 (1.05) L/min
terminal elimination rate constant, mean [5]: 0.0835 h⁻¹
Ln-CL/F, geometric least square mean (standard error), normalised to 10 mg (steady state, every 6 hours, oxymorphone IR 5 mg): 18.70 (1.03) L/min
Ln-CL/F, geometric least square mean (standard error), normalised to 10 mg (steady state, every 6 hours, oxymorphone IR 10 mg): 17.08 (1.03) L/min
Ln-CL/F, geometric least square mean (standard error), normalised to 10 mg (steady state, every 6 hours, oxymorphone IR 20 mg): 16.72 (1.03) L/min
C/LF (oral clearance), mean [7]: 19.23 L/min
Cavg (average plasma concentration), mean [7]: 0.77 ng/mL
Cmin, mean [7]: 0.49 ng/mL
C/LF (oral clearance), mean [8]: 17.63 L/min
Cavg (average plasma concentration), mean [8]: 1.70 ng/mL
Cmin, mean [8]: 1.16 ng/mL
tmax, median [8]: 0.50 h
C/LF (oral clearance), mean [9]: 17.68 L/min
Cavg (average plasma concentration), mean [9]: 3.52 ng/mL
Cmin, mean [9]: 2.47 ng/mL
